Patent US9464093B2, “Substituted imidazo[4',5':4,5]cyclopenta[1,2-e]pyrrolo[1,2-a]pyrazines and oxazolo[4',5':4,5]cyclopenta[1,2-e]pyrrolo[1,2-a]pyrazines for treating brain cancer” (Mayo Foundation for Medical Education and Research, priority 2012, dated 2016)
pIC50: −log10 of the molar value. Entries after “also recorded” stand apart in the source; their conditions may differ.

Experiments:
[1] = system: MB-468 triple-negative breast cancer cells; assay: MB-468 orthotopic murine model for metastatic breast cancer of the brain; format: in vivo, athymic mice; conditions: for Median Survival (Day) Breast Cancer (MB-468): control 52; for survival (Kaplan-Meier) vs control, MB-468 model / tumor growth (BLI) vs control, MB-468 model: all treatment groups (2.5 or 5 mg/kg i.p. daily for 4 days); for tolerability, MB-468 model: both dose levels (2.5 and 5 mg/kg)
Method: (§1) Female athymic mice (8-10 weeks old and weighing 20-25 g at the beginning of the study) were purchased from Harlan laboratories (Indianapolis, Ind.). They were housed in a temperature-controlled sterilized room (23±2° C.) with a 12-h light/dark cycle and free access to food and water throughout the study.
(§2) Murine brain tumor models were created by intracerebral injection of luciferase-transfected cancer cells in athymic mice under anesthesia using a stereotactic platform. For murine model for CNS lymphoma, 1×10^5 OCI-LY10 B lymphoma cells were used. For murine model for metastatic breast cancer of the brain (MBCB), 1×10^5 MB-468 triple-negative breast cancer cells were used. For murine model for glioblastoma multiforme (GBM), 1.75×10^5 U87 cells were used. Eight-week-old athymic mice underwent a minimum 7-day acclimation/quarantine prior to surgery. Surgery was performed in a laminar flow hood under sterile conditions. Tylenol 300 mg/kg PO was given for analgesia 48 hours before the surgery and continuing 48 hours postoperatively. Anesthesia was achieved by inhalation of 1-2% isoflurane. After the mouse became well anesthetized, it was placed in the Kopf stereotactic instrument. A small amount of BNP antibiotic cream (a mixture of Bacitracin, Neomycin and Polymyxin) was smeared on its eyes to prevent infection and corneal damage during surgery. A strip of soft fabric was placed over the mouse's body and tail to prevent excessive heat loss during surgery. The scalp area was cleaned with a 2% solution of Betadine and dried with cotton tipped applicator. A midline sagittal incision was made in the scalp. A small burr hole was drilled in the left skull with a surgical drill (Kopf) or a Dremel drill according to the coordinates (AP: 0.5 mm, LM: 2.5 mm) as determined by reference to the mouse brain atlas by Franklin and Paxinos. The dura mater was surgically exposed, and a 10 μl Hamilton syringe with a 26S-gauge beveled needle was lowered into the left cerebral hemisphere up to a depth of 3 mm and 5 μl of tumor cells were slowly infused (0.5 μl/min). The needle was left in place for 5 minutes to prevent reflux and then was slowly removed. The skin was closed with wound clips. The mice recovered from anesthesia and surgery in a warm environment and were not returned to their cages until motor activity returned. Cages were placed on top of a heating pad to minimize the loss of body heat during the recovery. The mice were monitored post-operatively at least twice a day for 5 days or until recovery was complete.
(§3) BLI was used to assess the impact of the treatments on the brain tumor growth. After intracerebral injection of cancer cells, all the mice were subjected to bioluminesence imaging (BLI) twice a week starting at day-4 post-intracerebral injection to monitor the real-time in vivo tumor growth. BLI was conducted using a Xenogen Lumina optical imaging system (Caliper Life Sciences, Hopkinton, Mass.). Mice were anesthetized with isofluorane before intraperitoneal injections of luciferin at a dose of 150 mg/kg, providing a saturating substrate concentration for luciferase enzyme. Peak luminescent signals were recorded 10 minutes after luciferin injection. Regions of interest encompassing the intracranial area of signal were defined using Living Image software (Xenogen, Alameda, Calif.), and the total photons/s/steradian/cm2 was recorded.
(§4) Five mice each were assigned to one of seven treatment groups or one vehicle control group for all three brain tumor models. Mice in experimental groups received either 2.5 mg/kg or 5 mg/kg of AA, CEAA, or DCEAA by intraperitoneal route daily for 4 days. For CAA, only 2.5 mg/Kg by intraperitoneal route daily for 4 days was used. The control group received DMSO by intraperitoneal route for 4 days. The end point for the survival analysis was the development of limb paralysis. Animals were checked at least twice per day. Animals that reached the end point were sacrificed by CO2 anesthesia. […]

[2] = system: U87; assay: Cell proliferation assay U87 (Example 6); format: cell-based; conditions: cells counted on the sixth day
Method: (§5) In-vitro assays were performed to assess the cytotoxic impact of AA analogues on breast cancer cell lines (MB-468, MB-453, and T47D), lymphoma cell lines (Raji and OCI-LY10), and glioblastoma multiforme cell line (U87). The three breast cancer cell lines represent three subtypes of breast cancer: triple-negative (MB-468), Her2-positive (MB-453), and hormone receptor positive (T47D).
(§6) The IC50 values obtained for each compound represents the concentration of the tested compound that is needed to decrease the cancer cell count by 50%. Cancer cells were seeded in triplicate at 50,000 cells per well of a 24-well plate in 0.5 ml medium. […] Cells were harvested and counted on the sixth day using a Beckman Coulter counter.

[3] = system: U87 cells; assay: U87 orthotopic murine model for glioblastoma multiforme; format: in vivo; conditions: for Median Survival (Day) GBM (U-87): control 25.5; for survival (Kaplan-Meier) vs control, U87 model / tumor growth (BLI) vs control, U87 model: all treatment groups (2.5 or 5 mg/kg i.p. daily for 4 days); for tolerability, U87 model: both dose levels (2.5 and 5 mg/kg)
Method: as §1, §2, §3, §4

[4] = system: MB-453; assay: Cell proliferation assay MB-453 (Example 6); format: cell-based; conditions: cells counted on the sixth day
Method: as §5, §6

[5] = system: osteopontin mRNA; assay: Osteopontin mRNA real-time PCR; format: cell-based; conditions: at 12 h; normalized to GAPDH
Method: B lymphoma cells were grown at 1×10^6 cells in complete media. Cells were harvested by centrifugation, and total RNA was extracted by Trizol and PureLink kit as described by the manufacturer (Invitrogen: Carlsbad, Calif.). Residual genomic DNA contamination was removed by DNA-Free kit (Applied Biosystems: Carlsbad, Calif.). Total RNA was converted to cDNA using the High Capacity Reverse Transciption kit (Applied Biosystems: Carlsbad, Calif.) and diluted to 4 ng/μl RNA with nuclease-free water.
Ct values were determined by instrument software and relative osteopontin mRNA values were normalized to GAPDH. Significant difference of Ct values was determined using a two-tailed Student's T-test.

[6] = system: Raji lymphoma cells; assay: Raji orthotopic murine CNS lymphoma model; format: in vivo, athymic mice; conditions: 1, 2.5 or 5 mg/kg i.p. for four days; vs vehicle control
Method: Athymic mice (nu/nu; 8-10 weeks old) were anesthetized with gasiform isofluorane and 25,000 Raji cells transfected with luciferase (as described in in vitro study) were stereotactically injected into the left cerebral hemisphere at coordinates (AP: 0.5 mm, LM: 2.5 mm, DV: 3 mm) from the bregma and skull at a volume of 5 μl and at a rate of 1 μl/min. The needle was left in place for 5 min after injection.
BLI was conducted using a Xenogen Lumina optical imaging system (Caliper Life Sciences, Hopkinton, Mass.). Mice were anesthetized with isofluorane before intraperitoneal injections of luciferin at a dose of 150 mg/kg, providing a saturating substrate concentration for luciferase enzyme. Peak luminescent signals were recorded 10 minutes after luciferin injection. Regions of interest encompassing the intracranial area of signal were defined using Living Image software, and the total photons/s/steradian/cm^2 was recorded.
Raji murine CNS lymphoma model was created as described in in vivo study section. After bioluminesence imaging (BLI) scanning on day 4 post intracerebral injection, animals were randomly assigned to four different groups. […] […] BLI was used for real time monitoring of tumor growth. Differences in tumor growth were statistically analyzed by ANOVA.

[7] = 2.5 mg/kg intraperitoneal daily for 4 days
[8] = 5 mg/kg intraperitoneal daily for 4 days

Row | Structure (SMILES) | Median Survival (Day) Breast Cancer (MB-468) [1, 7] [days] | Median Survival (Day) Breast Cancer (MB-468) [1, 8] [days] | survival (Kaplan-Meier) vs control, MB-468 model [1] | tumor growth (BLI) vs control, MB-468 model [1] | tolerability, MB-468 model [1] | pIC50 ([2]; Homo sapiens, U-87 MG) | Median Survival (Day) GBM (U-87) [3, 7] [days] | Median Survival (Day) GBM (U-87) [3, 8] [days] | survival (Kaplan-Meier) vs control, U87 model [3] | tumor growth (BLI) vs control, U87 model [3] | tolerability, U87 model [3] | pIC50 [4] | weight loss, MB-468 model ([1]; 2.5 mg/kg) | weight loss, U87 model ([3]; 2.5 mg/kg) | weight loss, MB-468 model ([1]; 5 mg/kg dose level) | pIC50 [2] | weight loss, U87 model ([3]; 5 mg/kg dose level) | expression of OPN messenger RNA (PCR) [5] | CNS lymphoma tumor growth (BLI) [6] | survival (Kaplan-Meier) [6]
1 | CCN1C(=O)N[C@H]2[C@@H]3NC(=O)c4ccc(Cl)n4[C@@H]3C[C@]21O [CEAA, chloroethylagelastatin A] | 56 | 64 | significantly prolonged survival; also recorded: prolongation of survival | significantly decreased tumor growth; also recorded: significantly slower | well tolerated | 6.96 | 29 | 31 | significantly prolonged survival; also recorded: prolongation of survival | significantly decreased tumor growth; also recorded: significantly slower | well tolerated | 6.85 | – | – | – | – | – | – | – | –
2 | CN1C(=O)N[C@H]2[C@@H]3NC(=O)c4ccc(Cl)n4[C@@H]3C[C@]21O [CAA, chloroagelastatin A] | 75 | – | significantly prolonged survival | significantly decreased tumor growth | – | 7.02 | 31 | – | significantly prolonged survival; also recorded: prolongation of survival | significantly decreased tumor growth; also recorded: significantly slower | – | 7.04 | Some weight loss | Some weight loss | – | – | – | – | – | –
3 | CCN1C(=O)N[C@H]2[C@@H]3NC(=O)c4cc(Cl)c(Cl)n4[C@@H]3C[C@]21O [DCEAA, dichloroethylagelastatin A] | 61 | 75 | significantly prolonged survival; also recorded: prolongation of survival | significantly decreased tumor growth; also recorded: significantly slower | well tolerated | 6.59 | 30 | 34 | significantly prolonged survival; also recorded: prolongation of survival | significantly decreased tumor growth; also recorded: significantly slower | well tolerated | 6.98 | – | – | – | – | – | – | – | –
4 | CN1C(=O)N[C@H]2[C@@H]3NC(=O)c4ccc(Br)n4[C@@H]3C[C@]21O [AA, agelastatin A, reference compound] | 57 | 60.5 | significantly prolonged survival; also recorded: prolongation of survival | significantly decreased tumor growth; also recorded: significantly slower | – | – | 28 | 30 | significantly prolonged survival; also recorded: prolongation of survival | significantly decreased tumor growth; also recorded: significantly slower | – | 6.19 | – | – | Some weight loss | 5.55 | Some weight loss | transcriptionally downregulating osteopontin; also recorded: decreases the expression of OPN messenger RNA | significantly decreased the tumor growth; also recorded: therapeutic effect of AA treatment on the CNS lymphoma growth | significantly prolonged the survival; also recorded: survival prolongation
